The results in this text go back to ChEMBL document CHEMBL5352399, “(1R,3S)-THCCA-Asn: To show the discovery of selective inhibitor of thrombin by successfully combining virtual screening and biological assay” (Eur J Med Chem, 2022).

Data set [1] deals with Rattus norvegicus. In words: Antithrombotic activity in Wistar rat model assessed as thrombus weight at 10 nmol/kg, po by polyethylene tube based method. It is filed as functional.
Data set [2] deals with Rattus norvegicus. The data set is described as follows: Antithrombotic activity in Wistar rat model assessed as thrombus weight at 1 nmol/kg, po by polyethylene tube based method. It is filed as functional.
Data set [3] deals with Platelet. In words: Anti-platelet aggregation activity in Sprague-Dawley rat platelet rich plasma assessed as inhibition of AA-induced aggregation preincubated with compound followed by AA addition measured after 5 mins by two channel chronology aggregometry. It is filed as functional, cell-based.
Data set [4] deals with Platelet. In words: Anti-platelet aggregation activity in Sprague-Dawley rat platelet rich plasma assessed as inhibition of PAF-induced aggregation preincubated with compound followed by PAF addition measured after 5 mins by two channel chronology aggregometry. It is filed as functional, cell-based.
Data set [5] has as its system Platelet. The data set is described as follows: Anti-platelet aggregation activity in Sprague-Dawley rat platelet rich plasma assessed as inhibition of ADP-induced aggregation preincubated with compound followed by ADP addition measured after 5 mins by two channel chronology aggregometry. It is filed as functional, cell-based.
Data set [6] in a line: Anti-platelet aggregation activity in Sprague-Dawley rat platelet rich plasma assessed as inhibition of TH-induced aggregation preincubated with compound followed by TH addition measured after 5 mins by two channel chronology aggregometry. It is filed as functional, cell-based.
Data set [7] is described as follows: Cytotoxicity activity against human L02 cells assessed as cell growth inhibition incubated for 48 hrs by CCK-8 assay. It is filed as toxicity, cell-based.
Data set [8] is described as follows: Cytotoxicity activity against human NCM460 cells assessed as cell growth inhibition incubated for 48 hrs by CCK-8 assay. It is filed as toxicity, cell-based.
Data set [9] in a line: Cytotoxicity activity against human NHDF cells assessed as cell growth inhibition incubated for 48 hrs by CCK-8 assay. It is filed as toxicity, cell-based.
The nature of data set [10]: Toxicity in rat thrombosis model assessed as change in tail bleeding time at 1 nmol/kg, po by tail bleeding time assay. It is filed as organism-based. As to conditions: in vivo.
A short description of data set [11]: Toxicity in rat thrombosis model assessed as change in tail bleeding time at 0.01 nmol/kg, po by tail bleeding time assay. It is filed as organism-based. The following applies: in vivo.
A short description of data set [12]: Toxicity in rat thrombosis model assessed as change in tail bleeding time at 0.001 nmol/kg, po by tail bleeding time assay. It is filed as organism-based. The following applies: in vivo.
Data set [13] in a line: Toxicity in rat thrombosis model assessed as bleeding in brain at 0.001 to 1 nmol/kg, po. It is filed as tissue-based. As to conditions: in vivo, dose 0.001-1 nmol/kg.
Data set [14] is described as follows: Toxicity in rat thrombosis model assessed as bleeding in thoracic cavity at 0.001 to 1 nmol/kg, po. The following applies: in vivo, dose 0.001-1 nmol/kg.
The nature of data set [15]: Toxicity in rat thrombosis model assessed as bleeding in inferior cavity at 0.001 to 1 nmol/kg, po. As to conditions: in vivo, dose 0.001-1 nmol/kg.
The test system of data set [16] is Rattus norvegicus. The data set is described as follows: Anti-arterial thrombosis activity in po dosed male Wister rat thrombogenesis model assessed as thrombus weight by polyethylene tube based method. It is filed as functional, organism-based. The following applies: dose 0.001-1 nmol/kg.

pIC50: −log10 of the molar value. Active and inactive are the calls of the source. The rule behind the calls is not given here. Bounds are passed on as bounds.

As to `COC(=O)c1cc([C@H]2N[C@H](C(=O)O)Cc3c2[nH]c2ccccc32)ccc1O`, in the data set with Rattus norvegicus [1], the Activity was found to be 23.17 mg.
With `COC(=O)c1cc([C@H]2N[C@H](C(=O)N[C@@H](Cc3ccccc3)C(=O)O)Cc3c2[nH]c2ccccc32)ccc1O`, the Activity in the data set with Rattus norvegicus [2] amounted to 23.69 mg. Also, the inhibition entry in the data set with Platelet [3], in the data set with Platelet [4] and with Platelet [5] was “inactive” in each case. The pIC50 in data set [6] is 5.76.
As for `COC(=O)c1cc([C@H]2N[C@H](C(=O)N[C@@H](C)C(=O)O)Cc3c2[nH]c2ccccc32)ccc1O`, the Activity in the data set on Rattus norvegicus [2] was 21.66 mg. Also, the inhibition result with Platelet [3], with Platelet [4] and in the data set on Platelet [5] was “inactive” throughout. Further, the pIC50 in [6] is 6.64.
Take `COC(=O)c1cc([C@H]2N[C@H](C(=O)N[C@@H](CC(N)=O)C(=O)O)Cc3c2[nH]c2ccccc32)ccc1O`: the Activity with Rattus norvegicus [2] was 19.19 mg; in [10] it was “Non-Toxic”; in [11] it was “Non-Toxic”; in [12], “Non-Toxic”; in data set [13], “Non-Toxic”; in data set [14] it was “Non-Toxic”. Besides, the Activity result in data set [15] was “Non-Toxic”; in the data set with Rattus norvegicus [16], “Dose-Dependent Effect”. In addition, the inhibition result with Platelet [3], with Platelet [4] and in the data set with Platelet [5] was “inactive” throughout. Also, the pIC50 in data set [6] is 7.15. The IC50 at 48 h in data set [7], in [8] and in data set [9] was greater than 125000 nM throughout.
`COC(=O)c1cc([C@H]2N[C@H](C(=O)N[C@@H](CCCNC(=N)N)C(=O)O)Cc3c2[nH]c2ccccc32)ccc1O`: the Activity with Rattus norvegicus [2] is listed as 21.66 mg. For the same molecule, the inhibition result with Platelet [3], with Platelet [4] and in the data set with Platelet [5] was “inactive” each time. Further, the pIC50 in [6] is 6.64.
In the case of `COC(=O)c1cc([C@H]2N[C@H](C(=O)N[C@@H](CCCCN)C(=O)O)Cc3c2[nH]c2ccccc32)ccc1O`, in the data set on Rattus norvegicus [2], the Activity stood at 19.19 mg. For the same molecule, the inhibition entry with Platelet [3], in the data set with Platelet [4] and in the data set on Platelet [5] was “inactive” in each case. In addition, in [6], the pIC50 is 7.15.
`COC(=O)c1cc([C@H]2N[C@H](C(=O)N[C@@H](Cc3c[nH]c4ccccc34)C(=O)O)Cc3c2[nH]c2ccccc32)ccc1O`: the Activity with Rattus norvegicus [2] is reported as 21.66 mg. In addition, the inhibition entry in the data set on Platelet [3], with Platelet [4] and in the data set on Platelet [5] was “inactive” each time. The pIC50 in [6] is 6.64.
On to `COC(=O)c1cc([C@H]2N[C@H](C(=O)N[C@H](C(=O)O)C(C)C)Cc3c2[nH]c2ccccc32)ccc1O`, for which the Activity with Rattus norvegicus [2] was 23.69 mg. For the same molecule, the inhibition result in the data set on Platelet [3], with Platelet [4] and in the data set with Platelet [5] was “inactive” throughout. In addition, in data set [6], the pIC50 was 6.64.
On to `COC(=O)c1cc([C@H]2N[C@H](C(=O)N[C@@H](CCC(N)=O)C(=O)O)Cc3c2[nH]c2ccccc32)ccc1O`, for which the Activity with Rattus norvegicus [2] is listed as 21.66 mg. The inhibition entry in the data set on Platelet [3], in the data set on Platelet [4] and with Platelet [5] was “inactive” each time. In addition, in data set [6], the pIC50 is 6.64.
As to `COC(=O)c1cc([C@H]2N[C@H](C(=O)N[C@H](C(=O)O)[C@@H](C)O)Cc3c2[nH]c2ccccc32)ccc1O`, the Activity in the data set on Rattus norvegicus [2] is on record as 23.69 mg. Besides, the inhibition entry with Platelet [3], with Platelet [4] and in the data set with Platelet [5] was “inactive” in each case. Besides, the pIC50 in data set [6] was 5.76.
As for `COC(=O)c1cc([C@H]2N[C@H](C(=O)N[C@@H](CCC(=O)O)C(=O)O)Cc3c2[nH]c2ccccc32)ccc1O`, the Activity with Rattus norvegicus [2] amounted to 23.69 mg. Moreover, the inhibition result in the data set with Platelet [3], with Platelet [4] and in the data set with Platelet [5] was “inactive” throughout. Besides, the pIC50 in data set [6] was 5.76.
For the molecule `COC(=O)c1cc([C@H]2N[C@H](C(=O)NCC(=O)O)Cc3c2[nH]c2ccccc32)ccc1O`, in the data set on Rattus norvegicus [2], the Activity was 23.69 mg. The inhibition result with Platelet [3], with Platelet [4] and in the data set on Platelet [5] was “inactive” in each case. In data set [6], the pIC50 was 5.76.
Take `COC(=O)c1cc([C@H]2N[C@H](C(=O)N[C@@H](Cc3ccc(O)cc3)C(=O)O)Cc3c2[nH]c2ccccc32)ccc1O`: the Activity with Rattus norvegicus [2] was found to be 19.19 mg. Moreover, the inhibition result with Platelet [3], in the data set with Platelet [4] and in the data set on Platelet [5] was “inactive” throughout. Besides, the pIC50 in [6] was 7.15.
Take `COC(=O)c1cc([C@H]2N[C@H](C(=O)N[C@@H](CC(C)C)C(=O)O)Cc3c2[nH]c2ccccc32)ccc1O`: in the data set with Rattus norvegicus [2], the Activity is 23.69 mg. The inhibition entry with Platelet [3], with Platelet [4] and with Platelet [5] was “inactive” each time. Besides, the pIC50 in [6] is 5.76.
`COC(=O)c1cc([C@H]2N[C@H](C(=O)N[C@@H](CC(=O)O)C(=O)O)Cc3c2[nH]c2ccccc32)ccc1O`: the Activity with Rattus norvegicus [2] stood at 23.69 mg. The inhibition entry with Platelet [3], in the data set with Platelet [4] and with Platelet [5] was “inactive” each time. The pIC50 in [6] was 5.76.
In the case of `COC(=O)c1cc([C@H]2N[C@H](C(=O)N[C@@H](CO)C(=O)O)Cc3c2[nH]c2ccccc32)ccc1O`, the Activity in the data set on Rattus norvegicus [2] stood at 19.19 mg. The inhibition entry in the data set on Platelet [3], in the data set on Platelet [4] and with Platelet [5] was “inactive” each time. Moreover, the pIC50 in data set [6] is 7.15.
As to `CC[C@H](C)[C@H](NC(=O)[C@@H]1Cc2c([nH]c3ccccc23)[C@@H](c2ccc(O)c(C(=O)OC)c2)N1)C(=O)O`, in the data set on Rattus norvegicus [2], the Activity was determined as 21.66 mg. For the same molecule, the inhibition entry with Platelet [3], in the data set with Platelet [4] and with Platelet [5] was “inactive” in each case. Moreover, in [6], the pIC50 is 6.64.
